Source: patent US20250177383A1, “DI-CYCLOPROPYL BASED IL-17A MODULATORS AND USES THEREOF” (DICE ALPHA, INC., priority 2022, published 2025)

Columns and labels:
IL-17A/F = molecular target: T1, IL-17A/F (Homo sapiens, UniProt Q16552+Q96PD4); assay: IL-17A/F HEK-Blue Cell Assay; type: cell-based; settings: HEK-Blue IL-17 reporter cells, IL-17A/F stimulation, 20 hours, SEAP readout; for IC50: read-out: IL17AF HEK Blue pIC50 (converted)
T1 sequence (Q16552 24-155): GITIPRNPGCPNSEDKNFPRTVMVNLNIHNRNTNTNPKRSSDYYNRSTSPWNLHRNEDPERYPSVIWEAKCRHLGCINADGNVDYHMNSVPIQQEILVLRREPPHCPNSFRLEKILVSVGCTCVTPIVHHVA
T1 sequence (Q96PD4 31-163): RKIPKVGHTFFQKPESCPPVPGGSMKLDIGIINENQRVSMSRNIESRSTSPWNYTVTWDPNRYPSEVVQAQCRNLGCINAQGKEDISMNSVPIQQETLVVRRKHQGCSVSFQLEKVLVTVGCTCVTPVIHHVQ
Protocol: (§1) The HEK-Blue IL-17 reporter cell line (Fisher #NC1408637) was used for cell-based IL-17A/F inhibition assays. Cells were grown and prepared for assays according to the manufacturer's instructions. This cell line consists of HEK 293 cells that were designed to expressed IL-17RA, IL-17R^C, and the ActI adapter molecule, the combination of which, when stimulated by IL-17A/A activates a NFκB promoter and drives expression of a recombinant Secreted Alkaline Phosphatase (SEAP) geneprotein. Media from the cells is then added to a development reagent (Quanti-Blue Substrate, Fisher #NC9711613), and read at A630.
(§2) Compounds were titrated in DMSO and added to the cells immediately before adding IL-17A/A (Custom from R&D systems, untagged IL-17A/F+BSA as a carrier protein). The cells, compound, and IL-17A/A were then incubated for 20 hours before media was removed for SEAP analysis. The resulting inhibition curve was then analyzed using a Dotmatics screening protocol, and IC50 values were determined using a 4-parameter nonlinear fit. DMSO was added to a universal final concentration of 0.1% to optimize background.

IL-17A/A = molecular target: T2, IL-17A/A (Homo sapiens, UniProt Q16552); assay: IL-17A/A HEK-Blue Cell Assay; type: cell-based; settings: HEK-Blue IL-17 reporter cells, IL-17A/A stimulation, 20 hours, SEAP readout; read-out: IL17 AA HEK-5 pIC50 (converted)
T2 sequence (Q16552 24-155): T1 sequence (Q16552 24-155)
Protocol: as §1, with “IL-17A/A” for “IL-17A/F”, “IL-17R^A,” for “IL-17RA,”, “protein.” for “geneprotein.”
as §2, with “in DMSO, with a top final compound concentration of 10 uM” for “in DMSO”, “IL-17A/A (Genscript #Z03228).” for “IL-17A/A (Custom from R&D systems, untagged IL-17A/F+BSA as a carrier protein).”, “background. IL-17A/A inhibition data is provided in Table 1 for selected compounds.” for “background.”

| Compound | IC50 (IL-17A/F) [nM] | IC50 (IL-17A/A) [nM] | IL17AF HEK Blue pIC50 (IL-17A/F) |
| --- | --- | --- | --- |
| CCn1nccc1C(=O)N[C@H](C(=O)Nc1ccc([C@H](C)[C@@H](NC(=O)[C@H](C)N(C)C2=NCCO2)C(=O)N2CCN(C)[C@H](C)C2)cc1F)C(C1CC1)C1CC1 [Compound 296] | 10 to 100 | < 10 |  |
| CCn1nccc1C(=O)N[C@H](C(=O)Nc1ccc([C@H](C)[C@@H](NC(=O)C(C)CC(F)(F)F)C(=O)N2CCN(C)CC2)cc1F)C(C1CC1)C1CC1 (single isomer, unassigned) [Compound 331] | 100 to 10000 | 10 to 100 |  |
| CCC(=O)N[C@@H](C(=O)N1CCN(C)CC1)[C@@H](C)c1ccc(NC(=O)[C@@H](NC(=O)c2ccnn2CCF)C(C2CC2)C2CC2)c(F)c1 [Compound 216] | 10 to 100 | 10 to 100 |  |
| CCn1nccc1C(=O)N[C@H](C(=O)Nc1ccc([C@H](C)[C@@H](NC(=O)C(C)OCCOC)C(=O)N2CCN(C)CC2)cc1F)C(C1CC1)C1CC1 (single isomer, unassigned) [Compound 315] |  | 10 to 100 | C (7>C≥5) |
| CCOC(C)C(=O)N[C@@H](C(=O)N1CCN(C)CC1)[C@@H](C)c1ccc(NC(=O)[C@@H](NC(=O)c2ccnn2CC)C(C2CC2)C2CC2)c(F)c1 (single isomer, unassigned) [Compound 329] | 100 to 10000 | 10 to 100 |  |
| CO[C@@H](C)C(=O)N[C@@H](C(=O)N1CCN(C)CC1)[C@@H](C)c1ccc(NC(=O)[C@@H](NC(=O)c2ccnn2C2CC2)C(C2CC2)C2CC2)c(F)c1 [Compound 341] | 100 to 10000 | < 10 |  |
| CCn1nccc1C(=O)N[C@H](C(=O)Nc1ccc([C@H](C)[C@@H](NC(=O)C(C)C(F)(F)F)C(=O)N2CCN(C)[C@H](C)C2)cc1F)C(C1CC1)C1CC1 (single isomer, unassigned) [Compound 326] | 100 to 10000 | 10 to 100 |  |
| CCn1nccc1C(=O)N[C@H](C(=O)Nc1ccc([C@H](C)[C@@H](NC(=O)C(C)CC(F)(F)F)C(=O)N2CCN(C)[C@H](C)C2)cc1F)C(C1CC1)C1CC1 (single isomer, unassigned) [Compound 324] | 10 to 100 | < 10 |  |
| CCn1nccc1C(=O)N[C@H](C(=O)Nc1ccc([C@H](C)[C@@H](NC(=O)C(C)(F)F)C(=O)N2CCN(C)[C@H](C)C2)cc1F)C(C1CC1)C1CC1 [Compound 292] | 10 to 100 | < 10 |  |
| CCn1nccc1C(=O)N[C@H](C(=O)Nc1ccc([C@H](C)[C@@H](NC(=O)[C@@H](C)F)C(=O)N2CCN(C)[C@H](C)C2)cc1F)C(C1CC1)C1CC1 [Compound 349] | 100 to 10000 | < 10 |  |
| COC(=O)N1CC[C@H]1C(=O)N[C@@H](C(=O)N1CCN(C)[C@H](C)C1)[C@@H](C)c1ccc(NC(=O)[C@@H](NC(=O)C2(F)CC2)C(C2CC2)C2CC2)c(F)c1 [Compound 278] | 100 to 10000 | < 10 |  |
| CCOC(C)C(=O)N[C@@H](C(=O)N1CCN(C)[C@H](C)C1)[C@@H](C)c1ccc(NC(=O)[C@@H](NC(=O)c2ccnn2CC)C(C2CC2)C2CC2)c(F)c1 (single isomer, unassigned) [Compound 323] | 10 to 100 | < 10 |  |
| CO[C@@H](C)C(=O)N[C@@H](C(=O)N1CCN(C)[C@H](C)C1)[C@@H](C)c1ccc(NC(=O)[C@@H](NC(=O)c2ccnn2C2CC2)C(C2CC2)C2CC2)c(F)c1 [Compound 342] | 10 to 100 | < 10 |  |
| CCn1nccc1C(=O)N[C@H](C(=O)Nc1ccc([C@H](C)[C@@H](NC(=O)C(C)OCCOC)C(=O)N2CCN(C)[C@H](C)C2)cc1F)C(C1CC1)C1CC1 (single isomer, unassigned) [Compound 311] | 100 to 10000 | 10 to 100 |  |
| CCOC(=O)N[C@@H](C)C(=O)N[C@@H](C(=O)N1CCN(C)[C@H](C)C1)[C@@H](C)c1ccc(NC(=O)[C@@H](NC(=O)C2(F)CC2)C(C2CC2)C2CC2)c(F)c1 [Compound 282] | 10 to 100 | < 10 |  |
| CCn1nccc1C(=O)N[C@H](C(=O)Nc1ccc(C(C(NC(=O)[C@H](C)OC)C(=O)N2CCN(C)[C@H](C)C2)C(F)(F)F)cc1F)C(C1CC1)C1CC1 (single isomer, unassigned) [Compound 355] | 100 to 10000 | 100 to 10000 |  |
| COC(=O)N1CC[C@H]1C(=O)N[C@@H](C(=O)N1CCN(C)CC1)[C@@H](C)c1ccc(NC(=O)[C@@H](NC(=O)C2(F)CC2)C(C2CC2)C2CC2)c(F)c1 [Compound 277] | 100 to 10000 | 10 to 100 |  |

| Compound | IC50 (IL-17A/F) [nM] | IC50 (IL-17A/A) [nM] | IL17AF HEK Blue pIC50 (IL-17A/F) |
| --- | --- | --- | --- |
| CCC(=O)NC(C(=O)N1CCN(C)CC1)C(c1ccc(NC(=O)[C@@H](NC(=O)c2ccnn2CC)C(C2CC2)C2CC2)c(F)c1)C(F)(F)F (single isomer, unassigned) [Compound 352] |  | 100 to 10000 | C (7>C≥5) |
| CCn1nccc1C(=O)N[C@H](C(=O)Nc1ccc([C@H](C)[C@@H](NC(=O)[C@H](C)N(C)c2ncncn2)C(=O)N2CCN(C)[C@H](C)C2)cc1F)C(C1CC1)C1CC1 [Compound 305] | < 10 | < 10 |  |
| C[C@@H](c1ccc(NC(=O)[C@@H](NC(=O)C2(F)CC2)C(C2CC2)C2CC2)c(F)c1)[C@@H](NC(=O)N(C)C1CC1)C(=O)N1CCN(C)CC1 [Compound 270] | 100 to 10000 | < 10 |  |
| C[C@@H](c1ccc(NC(=O)[C@@H](NC(=O)C2(F)CC2)C(C2CC2)C2CC2)c(F)c1)[C@@H](NC(=O)N(C)C1CC1)C(=O)N1C[C@H]2CC[C@@H](C1)N2C [Compound 295] | 100 to 10000 | < 10 |  |
| CCC(OC)C(=O)N[C@@H](C(=O)N1CCN(C)[C@H](C)C1)[C@@H](C)c1ccc(NC(=O)[C@@H](NC(=O)c2ccnn2CC)C(C2CC2)C2CC2)c(F)c1 (single isomer, unassigned) [Compound 335] | 100 to 10000 | 10 to 100 |  |
| COC(=O)N1CCC[C@H]1C(=O)N[C@@H](C(=O)N1CCN(C)[C@H](C)C1)[C@@H](C)c1ccc(NC(=O)[C@@H](NC(=O)C2(F)CC2)C(C2CC2)C2CC2)c(F)c1 [Compound 281] | 100 to 10000 | < 10 |  |
| CCC(=O)NC(C(=O)N1CCN(C)CC1)C(c1ccc(NC(=O)[C@@H](NC(=O)c2ccnn2CC)C(C2CC2)C2CC2)c(F)c1)C(F)(F)F (single isomer, unassigned) [Compound 356] |  | 10 to 100 | C (7>C≥5) |
| CCOC(=O)N[C@@H](CF)C(=O)N[C@@H](C(=O)N1CCN(C)CC1)[C@@H](C)c1ccc(NC(=O)[C@@H](NC(=O)c2nonc2C)C(C2CC2)C2CC2)c(F)c1 [Compound 360] | 10 to 100 | < 10 |  |
| CCC(=O)N[C@@H](C(=O)N1CC[C@H](N(C)C)C1)[C@@H](C)c1ccc(NC(=O)[C@@H](NC(=O)c2ccnn2CC)C(C2CC2)C2CC2)c(F)c1 [Compound 240] |  | 10 to 100 |  |
| CCC(=O)N[C@@H](C(=O)N1C[C@@H](C)N(C)[C@@H](C)C1)[C@@H](C)c1ccc(NC(=O)[C@@H](NC(=O)c2nonc2CC)C(C2CC2)C2CC2)c(F)c1 [Compound 205] |  | < 10 |  |
| CCC(=O)N[C@@H](C(=O)N1CCOCC1)[C@@H](C)c1ccc(NC(=O)[C@@H](NC(=O)c2ccnn2CCN2CCOCC2)C(C2CC2)C2CC2)c(F)c1 [Compound 253] |  | 100 to 10000 |  |
| CCC(=O)N[C@@H](C(=O)N1C[C@H]2CC[C@@H](C1)N2C)[C@@H](C)c1ccc(NC(=O)[C@@H](NC(=O)c2ccnn2CC)C(C2CC2)C2CC2)c(F)c1 [Compound 239] |  | < 10 |  |
| CCC(=O)N[C@@H](C(=O)N1CCN(C)[C@H](C)C1)[C@@H](C)c1ccc(NC(=O)[C@@H](NC(=O)c2ccnn2C2CC2)C(C2CC2)C2CC2)c(F)c1 [Compound 229] |  | < 10 |  |
| CCC(=O)N[C@@H](C(=O)N1C[C@H]2C[C@@H]1CN2C)[C@@H](C)c1ccc(NC(=O)[C@@H](NC(=O)c2ccnn2CC)C(C2CC2)C2CC2)c(F)c1 [Compound 236] |  | 10 to 100 |  |
| CCC(=O)N[C@@H](C(=O)N1CCN(C)CC1)[C@@H](C)c1ccc(NC(=O)[C@@H](NC(=O)c2ccnn2C)C(C2CC2)C2CC2)c(F)c1 [Compound 247] |  | 10 to 100 |  |
| CCc1nonc1C(=O)N[C@H](C(=O)Nc1ccc([C@H](C)[C@@H](NC(=O)[C@H](C)OC)C(=O)N2CCN(C)CC2)cc1F)C(C1CC1)C1CC1 [Compound 220] |  | < 10 |  |
